# From patent publication US11980188B2, “Spiro cyclohexanedione derivates as herbicides” (SYNGENTA PARTICIPATIONS AG, priority 2018, dated 2024)
# What was measured:
# AVEFA = assay: Post-emergence comparison with comparator C1 at indicated application rates; assay type: in vivo, Avena fatua
# Experimental: (§1) Seeds of a variety of test species are sown in standard soil in pots (Lolium perenne (LOLPE), Setaria faberi (SETFA), Alopecurus myosuroides (ALOMY), Echinochloa crus-galli (ECHCG), Avena fatua (AVEFA)). After cultivation for one day (pre-emergence) or after 8 days cultivation (post-emergence) under controlled conditions in a glasshouse (at 24/16° C., day/night; 14 hours light; 65% humidity), the plants are sprayed with an aqueous spray solution derived from the formulation of the technical active ingredient in acetone/water (50:50) solution containing 0.5% Tween 20 (polyoxyethelyene sorbitan monolaurate, CAS RN 9005-64-5). Compounds are applied at […]. The test plants are then grown in a glasshouse under controlled conditions in a glasshouse (at 24/16° C., day/night; 14 hours light; 65% humidity) and watered twice daily. After 13 days for pre and post-emergence, the test is evaluated for the percentage damage caused to the plant. The biological activities are shown in the following table on a five point scale (5=80-100%; 4=60-79%; 3=40-59%; 2=20-39%; 1=0-19%).
# (§2) Using procedures outlines above, weed species ALOMY, AVEFA & LOLPE are treated post-emergence with compound A4 of the present invention or comparator compound C1 (Compound T-26 from WO2008/110308) at the application rates indicated. The test is evaluated for the percentage damage caused to the plant.
# ALOMY = assay: as above; assay type: in vivo, Alopecurus myosuroides
# Experimental: as §1, §2
# LOLPE = assay: as above; assay type: in vivo, Lolium perenne
# Experimental: as §1, §2
# Lolium perenne (LOLPE) = assay: Glasshouse herbicide test, pre- and post-emergence, percentage damage; assay type: in vivo; conditions: 250 g/h, evaluated after 13 days, percentage damage on five point scale
# How it was run: (§3)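 Pot-grown grass weeds in standard soil were sprayed 1 day after sowing (pre-emergence) or after 8 days (post-emergence) with compound at 250 g/h in acetone/water (50:50) with 0.5% Tween 20. Glasshouse conditions were 24/16 °C day/night, 14 h light, 65% humidity. Damage was scored after 13 days on a five-point scale.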
# Avena fatua (AVEFA) = assay: as above; assay type: in vivo; conditions: 250 g/h, evaluated after 13 days, percentage damage on five point scale
# How it was run: as §3
# [1] = system: Alopecurus myosuroides (ALOMY); assay: as above; assay type: in vivo; conditions: 250 g/h, evaluated after 13 days, percentage damage on five point scale
# How it was run: as §3
# Setaria faberi (SETFA) = assay: as above; assay type: in vivo; conditions: 250 g/h, evaluated after 13 days, percentage damage on five point scale
# How it was run: as §3
# [2] = system: Echinochloa crus-galli (ECHCG); assay: as above; assay type: in vivo; conditions: 250 g/h, evaluated after 13 days, percentage damage on five point scale
# How it was run: as §3
# [3] = system: weed species ALOMY, AVEFA & LOLPE; assay: Post-emergence comparison with comparator C1, overall conclusion; assay type: in vivo; conditions: 63 and 16 g/ha, Table B2
# Experimental: as §1, §2
smiles,measurement,setting,value
CON1CCC2(CC1)CC(=O)C(c1c(C)cc(C)cc1C)C(=O)C2 [Compound A4],AVEFA percentage damage,AVEFA; rate 16 g/ha,40%
same,AVEFA percentage damage,AVEFA; rate 63 g/ha,90%
same,ALOMY percentage damage,ALOMY; rate 16 g/ha,40%
same,ALOMY percentage damage,ALOMY; rate 63 g/ha,90%
same,LOLPE percentage damage,LOLPE; rate 16 g/ha,70%
same,LOLPE percentage damage,LOLPE; rate 63 g/ha,90%
same,LOLPE POST,Lolium perenne (LOLPE); post-emergence,5 (5=80-100%)
same,LOLPE PRE,Lolium perenne (LOLPE); pre-emergence,5 (5=80-100%)
same,AVEFA POST,Avena fatua (AVEFA); post-emergence,5 (5=80-100%)
same,AVEFA PRE,Avena fatua (AVEFA); pre-emergence,5 (5=80-100%)
same,ALOMY POST,[1]; post-emergence,5 (5=80-100%)
same,ALOMY PRE,[1]; pre-emergence,5 (5=80-100%)
same,SETFA POST,Setaria faberi (SETFA); post-emergence,5 (5=80-100%)
same,SETFA PRE,Setaria faberi (SETFA); pre-emergence,5 (5=80-100%)
same,ECHCG POST,[2]; post-emergence,5 (5=80-100%)
same,ECHCG PRE,[2]; pre-emergence,5 (5=80-100%)
same,weed control vis-à-vis prior art compound C1,[3],improved weed control
